Test: Photochromic properties of the compound in the (co)polymer matrix under xenon lamp exposure
Type: physicochemical
Settings: for color exhibited: color of the photochromic compound; for λmax (nm): same conditions as compound (I): 0.05% by weight in matrix; for T0 (%) / DO induced: same conditions as compound (I); for DO induced: xenon lamp (40.000 lux)
Procedure: The matrix is based on a short-chain (meth)acrylate difunctional monomer and a long-chain alkenic difunctional monomer. Used at 0.05% by weight within the matrix (conditioned under 2 mm thickness), the compound has led to the results shown in the Table below.
Compounds C1, C2, C3, other naphthopyrans according to the application WO-A-94 22850, are identified by their developed formula in the Example part of the text. All compounds (II), C1, C2, C3 were tested under the same conditions as those indicated above with reference to compound (I).
The half-time of fading : t1/2, expressed in seconds is specified below for each one of the compounds. This parameter characterizes the kinetics of the return to the initial state (after darkening)(see its exact definition given earlier in the present text with reference to the Table grouping the properties of compound (I)).

[1] = 0.05% by weight within the matrix, 2 mm thickness
[2] = optical density after minus before exposure under a xenon lamp (40.000 lux), 0.05% by weight in matrix, 2 mm
[3] = transmission before exposure, 0.05% by weight in matrix, 2 mm

SMILES	λmax 1 [1]	λmax 2 [1]	color exhibited	DOinduced** at 489 nm [2]	DOinduced** at 588 nm [2]	T0* at 489 nm [3]	T0* at 588 nm [3]	λmax (nm) (2 mm)	T0 (%) (transmission before exposure)	DO induced
COc1ccc(C2(c3ccc(N(C)C)cc3)C=Cc3c(C)cc4c(OC)cc(OC)cc4c3O2)cc1 (centres unmarked) [Compound (I), 2-(p-dimethylaminophenyl)-2-(p-methoxyphenyl)-5-methyl-7,9-dimethoxy-[2H]-naphtho[1,2-b]pyran]	489 nm	588 nm	violet	0.58	0.94	85%	86%			
COc1ccc(C2(c3ccccc3)C=Cc3c(cc(N4CCOCC4)c4ccccc34)O2)cc1 (centres unmarked) [Compound (II), 3-(p-methoxyphenyl)-3-phenyl-6-morpholino-3H-naphtho-[2,1-b]pyran]			yellow					439 nm	79%	1.65
COc1ccc(C2(c3ccc(OC)cc3)C=Cc3c(cc(N4CCOCC4)c4ccccc34)O2)cc1 [Compound C1, reference compound]								456 nm	74%	1.37
COc1ccc(C2(c3ccc(C(F)(F)F)cc3)C=Cc3c(cc(N4CCOCC4)c4ccccc34)O2)cc1 (centres unmarked) [Compound C2, reference compound]								430 nm	68%	1.60
COc1ccc(C2(c3ccccc3)C=Cc3c(cc(N4CCCCC4)c4ccccc34)O2)cc1 (centres unmarked) [Compound C3, reference compound]								430 nm	79%	1.77
